Four molecules from patent publication US12692278B2, “Synthesis methods and compositions of low intermediate and low dichelate intermediate contrast agents” (priority 2021, dated 2026) can be followed below.

A short description of data set [1]: Transmetallation with ZnCl solution. The data set is classed as physicochemical. The following applies: free Gd; 10% by weight ZnCl solution; unit not given. An excerpt:
10% by weight ZnCl solution was used to support the serum results, arguing that Zn substitution of Gd in the chelate quantifies the stability of the Gd-DOTA in much the same way that metals in serum block Gd3+ recombination with the chelate, but with more precision, since the contents of bovine serum is variable among mammals.

A short description of data set [2]: Free Gd3+ after exposure to bovine serum. The class given is physicochemical. The procedure: To show these metastable intermediates readily evolve into free Gd3+, Gd-DOTA was placed in a solution of bovine serum and the amount of Gd3+ was measured.
Bovine blood was obtained at a local slaughterhouse, citrated, centrifuged and serum was obtained and frozen. In tests, serum was slowly heated to body temperature and 1% Gd-DOTA by weight was added to serum and placed on rocker for 30 minutes. Ten samples were tested for each test article.

A short description of data set [3]: Feasibility of cation exchange (sodium polystyrene sulfonate), free Gd3+ by xylenol orange. The class given is physicochemical. The following applies: before sodium polystyrene sulfonate treatment. The procedure: Feasibility of cation exchange as a method of making Gd-DOTA with low metastable intermediates
Using sodium polystyrene sulfonate, rather than the polymer described above.
Ten samples were stored at room temperature with a stoichiometric amount of sodium polystyrene sulfonate.
Samples were tested using the improved spectrometric xylenol orange method.

The nature of data set [4]: Feasibility of excess DTPA, free Gd3+ by xylenol orange. The data set is classed as physicochemical. Conditions: new 12 hour sample before DTPA. The procedure: The metastable intermediate concentration is determined by Example 3, and associated methods described in the present application. A Gd-DOTA synthesis containing metastable intermediates is heated to 95° C. in the presence of a stoichiometric amount of DTPA sufficient to consume all the metastable intermediates. The presence of metastable intermediates can be measured as a function of time. The reaction is continued until a desired metastable intermediate content is obtained. Depending on the amount of free DOTA thus liberated, the free DOTA can be reacted with a positively charged resin, as is known in the art. Alternatively, the free DOTA may serve as a buffer against free Gd3+ formation, as is permitted in some drug formulations. Ten samples were prepared by adding stoichiometric amounts of DTPA to counter the excess Gd3+ and stored at room temperature for 24 hours. Samples were tested using the improved spectrometric xylenol orange method.

The nature of data set [5]: Free Gd3+ baseline / in vial, xylenol orange. The data set is classed as physicochemical. An excerpt: Additionally or alternately, an improved version of the xylenol orange titration of free Gd3+ in the USP can be used as both an in-process check and a final product check. To obtain a limit of detection adequate for the product produced in the above claims, UV spectroscopy must be used in conjunction with the titration to measure the xylenol orange/free Gd reaction. Furthermore, an indirect measure of metastable intermediates is obtained when the titration reaction is allowed to proceed past the initial reaction of xylenol orange and free Gd. This is because xylenol orange will pull Gd from the metastable intermediates over time. […] Free Gadolinium was determined by using the spectrometric xylenol orange technique described in previous studies.

Data set [6] can be described thus: pH controlled synthesis, free Gd versus synthesis time. The data set is classed as physicochemical. On the procedure:
Here, Example 1A is modified by the addition of gadolinim oxide in its entirety at first and immediately after the introduction of the DOTA, and this procedure is used to produce batch A of Gd-DOTA. Batch B is produced using the following modified procedure.
• 1. Heat reactor to 95° C. • 2. Charge water with all of gadolinium oxide • 3. Stir (stir unless otherwise indicated, nominal rate 300 rpm) until the solution is clear • 4. Add sufficient DOTA to obtain a pH of 4 • 5. When pH is >5 charge sufficient DOTA to reach pH of 4 • 6. Stir until uniformly distributed in the water, and clear • 7. If pH<4, then go to step 9 • 8. Go to step 4 • 9. Divide remaining portion of DOTA into 5 parts • 10. Add 1 part of remaining DOTA • 11. Stir until uniformly distributed in the water, and clear • 12. If DOTA remains to be added go to step 10 • 13. Continue to cook for a total of 12 hours Results

Data set [7] in a line: Free Gd(III) in incompletely synthesized complex solution. The data set is classed as physicochemical. The following applies: mean of five reactions. On the procedure:
Then, the content of free DOTA, free gadolinium, and complex was determined, and the final content of excess free DOTA was set. Five reactions were run, using 4.05 g of DOTA, 15 ml water, and 1.78 g of gadolinium oxide. Ten spectroscopic measurements using Xylenol orange were conducted. […] This is the molar amount of xylenol orange added to each reaction product. One can use: Understanding that the denominator is a constant and Abs^573 is the number of free Gd(III) ions that react with the xylenol orange. This is a conservative measure of ppm, given by the ratio of free gadolinium and total gadolinium in the reactant (×10^6). Another possible definition, which would give a higher number (less conservative) is simply comparing free gadolinium to complexed gadolinium, which would mean ppm of free gadolinium for every million complexed gadolinium.

Data set [8] is classed as physicochemical. An excerpt: Ironically, Gd-DTPA has a more favorable binding constant than does Gd-DOTA at pH 7.4. For less basic ligands like Gd-DTPA-BMA and DOTA-(gly)4, the experimental values are closer to the theoretical thermodynamic stability constant because there is less competition from available protons at pH 7.4.
Data set [9] is described as follows: Feasibility of acid precipitation, free Gd3+ by xylenol orange. The class given is physicochemical. Conditions: 12 hour sample, 1 hr 0.1 M HCl, buffer to pH 7.0, filtration. On the procedure: The feasibility of acid precipitation as a method for making Gd-DOTA with low metastable intermediate forms was tested.
Ten samples were tested using the improved spectrometric xylenol orange method after 1 hr exposure to acid (0.1 M HCl), buffer to pH 7.0, and filtration of the precipitate. • 12 hour Example 1A sample was used at 803 ppm Gd3+ • After acid precipitation (N=5) • 8.6+/−9.2 ppm Gd3+ range: 15.9 ppm Gd3+ to undetectable
Ten samples were tested using the improved spectrometric xylenol orange method after 1 hr exposure to acid (0.1 M HCl), buffer to pH 7.0, and filtration of the precipitate. • 12 hour Example 1B sample was used at 803 ppm Gd3+ • After acid precipitation (N=5) • 8.6+/−9.2 ppm Gd3+ range: 15.9 ppm Gd3+ to undetectable.

Take `CNC[C@H](O)[C@@H](O)[C@H](O)[C@H](O)CO.O=C([O-])CN1CCN(CC(=O)[O-])CCN(CC(=O)O)CCN(CC(=O)[O-])CC1.[Gd+3]` [Example 1, Gd-DOTA]: in [1], the Transmetallation was 88 +/− 16.8. Also, the “Free Gd+ after serum” value in data set [2] (1% Gd-DOTA by weight in bovine serum, body temperature, rocker 30 minutes, ppm adjusted to pre-diluted level) is 88 +/− 16.8 ppm. For the same molecule, in data set [2] (free Gd, unit not given), the “In Serum” value is recorded as 2.9 +/− 0.8. The “Gd3+ of starting sample” value in data set [3] and in data set [4] was 2146 ppm each time. In [5] (before serum, ppm adjusted to pre-diluted level at drug concentration), the “Baseline Free Gd3+” value was 0.77 +/− 0.92 ppm. The “In Vial” value in data set [5] (free Gd, no unit printed in this table (ppm in the 1st table)) is listed as 0.77 +/− 0.92. The “Free Gd” value in [6] (synthesis time 4 hrs) was 17,467 +/− 9.4 ppm; in data set [6] (synthesis time 8 hrs) it was 3,448 +/− 8.9 ppm; in data set [6] (synthesis time 12 hrs) it was 803 +/− 8.1 ppm.

In the case of Gd-DOTA [Example 4], the “Free Gd(III), MEAN” value in data set [7] is 30,989 +/− 9410 ppm.

Regarding `CNC[C@H](O)[C@@H](O)[C@H](O)[C@H](O)CO.O=C([O-])CN1CCN(CC(=O)[O-])CCN(CC(=O)O)CCN(CC(=O)[O-])CC1.[Gd+3]` [Gd-DOTA, gadoterate meglumine, reference compound], the “stability lower at pH 7.4” value in data set [8] is listed as 7 orders of magnitude. Besides, the “in-bottle measured free gadolinium” value in [5] (commercial product stored in bottle) is given as 10^13 Gd3+ ions in 100 ml of GCA product.

Consider `O=C([O-])CN1CCN(CC(=O)[O-])CCN(CC(=O)O)CCN(CC(=O)[O-])CC1.[Gd+3]` [Example 2A, Gd-DOTA], for which the “Gd3+ after acid precipitation, range (upper value, down to undetectable)” value in [9] is not above 15.9 ppm. The “Gd3+ after acid precipitation” value in [9] (N=5) was 8.6+/−9.2 ppm.
